From ChEMBL document CHEMBL5365497, “Developing Novel Coumarin-Containing Azoles Antifungal Agents by the Scaffold Merging Strategy for Treating Azole-Resistant Candidiasis” (J Med Chem, 2023)
pIC50: −log10 of the molar value. ≈ marks a conversion by molar mass, not a printed value. Calls of active or inactive are those of the source. The rule behind the calls is not given here.

Assays:
[1] = target: Cytochrome P450 2C9 (Homo sapiens, UniProt P11712); assay: Inhibition of CYP2C9 in human liver microsomes using diclofenac as substrate preincubated for 5 mins followed by NADPH addition by LC-MS/MS analysis; assay type: ADME, Microsome
[2] = tested on: Candida albicans; assay: Induction of ROS production in fluconazole-resistant Candida albicans 904 at 64 ug/ml incubated for 30 mins by fluorescence microscopy; assay type: functional, organism-based; conditions: dose 64.0 µg/ml
[3] = tested on: Candida albicans; assay: Antifungal activity against fluconazole-resistant Candida albicans 904 assessed as fungal growth inhibition measured for 48 hrs by CLSI based microdilution method; assay type: functional
[4] = tested on: Candida albicans; assay: Antifungal activity against fluconazole-resistant Candida albicans 17# assessed as fungal growth inhibition by CLSI based microdilution method; assay type: functional
[5] = tested on: Candida albicans; assay: Antifungal activity against fluconazole-resistant Candida albicans 904 assessed as reduction in ALS3 expression at 16 ug/ml incubated for 12 hrs by RT-PCR analysis; assay type: functional, organism-based; conditions: dose 16.0 µg/ml
[6] = tested on: Candida albicans; assay: Antifungal activity against Candida albicans SC5314 assessed as leakage of endogenous material within cells at 16 ug/ml incubated for 24 hrs by TEM analysis; assay type: functional, organism-based; conditions: dose 16.0 µg/ml
[7] = tested on: Candida albicans; assay: Antifungal activity against fluconazole-resistant Candida albicans CaR assessed as fungal growth inhibition by CLSI based microdilution method; assay type: functional
[8] = tested on: Candida albicans; assay: Antifungal activity against Candida albicans CPCC400616 assessed as reduction in ALS3 expression at 2 ug/ml incubated for 12 hrs by RT-PCR analysis; assay type: functional, organism-based; conditions: dose 2.0 µg/ml
[9] = Subacute toxicity in KM mouse assessed as liver inflammation at 100 mg/kg administered via gavage daily for 7 days; assay type: organism-based; conditions: in vivo, po, 168 h, time 7 day
[10] = Acute toxicity in fasted KM mouse assessed as body weight change at 1000 mg/kg administered via gavage measured for 7 days; assay type: organism-based; conditions: in vivo, po, 168 h, time 7 day
[11] = target: Lanosterol 14-alpha demethylase (Candida albicans (strain SC5314 / ATCC MYA-2876) (Yeast), UniProt P10613); assay: Inhibition of CYP51 in Candida albicans SC5314 assessed as increase in obtusifoliol level at 0.03125 ug/ml incubated for 24 hrs by GC-MS analysis; conditions: at 0.03125 µg/mL
[12] = tested on: Candida albicans; assay: Antifungal activity against fluconazole-resistant Candida albicans 901 assessed as fungal growth inhibition by CLSI based microdilution method; assay type: functional
[13] = tested on: Candida albicans; assay: Antibiofilm activity against fluconazole-resistant Candida albicans 904 incubated for 24 hrs by XTT reduction assay; assay type: functional, organism-based; conditions: dose <= 128.0 µg/ml
[14] = tested on: Candida albicans; assay: Antifungal activity against fluconazole-resistant Candida albicans 904 assessed as reduction in TEC1 expression at 16 ug/ml incubated for 12 hrs by RT-PCR analysis; assay type: functional, organism-based; conditions: dose 16.0 µg/ml
[15] = tested on: Cryptococcus neoformans; assay: Antifungal activity against Cryptococcus neoformans assessed as fungal growth inhibition by CLSI based microdilution method; assay type: functional
[16] = tested on: Candida albicans; assay: Antifungal activity against fluconazole-resistant Candida albicans 904 assessed as decrease in CDR1 expression at 16 ug/ml measured after 16 hrs by RT-PCR analysis; assay type: functional, organism-based; conditions: dose 16.0 µg/ml
[17] = tested on: Candida tropicalis; assay: Antifungal activity against Candida tropicalis assessed as fungal growth inhibition by CLSI based microdilution method; assay type: functional
[18] = tested on: Candida albicans; assay: Antifungal activity against Candida albicans SC5314 assessed as destruction of cell membrane at 16 ug/ml incubated for 24 hrs by TEM analysis; assay type: functional, organism-based; conditions: dose 16.0 µg/ml
[19] = target: T1, Cytochrome P450 1A2 (Homo sapiens, UniProt P05177); assay: Inhibition of CYP1A2 in human liver microsomes using phenacetin as substrate preincubated for 5 mins followed by NADPH addition by LC-MS/MS analysis; assay type: ADME, Microsome
T1 sequence (P05177 whole entry): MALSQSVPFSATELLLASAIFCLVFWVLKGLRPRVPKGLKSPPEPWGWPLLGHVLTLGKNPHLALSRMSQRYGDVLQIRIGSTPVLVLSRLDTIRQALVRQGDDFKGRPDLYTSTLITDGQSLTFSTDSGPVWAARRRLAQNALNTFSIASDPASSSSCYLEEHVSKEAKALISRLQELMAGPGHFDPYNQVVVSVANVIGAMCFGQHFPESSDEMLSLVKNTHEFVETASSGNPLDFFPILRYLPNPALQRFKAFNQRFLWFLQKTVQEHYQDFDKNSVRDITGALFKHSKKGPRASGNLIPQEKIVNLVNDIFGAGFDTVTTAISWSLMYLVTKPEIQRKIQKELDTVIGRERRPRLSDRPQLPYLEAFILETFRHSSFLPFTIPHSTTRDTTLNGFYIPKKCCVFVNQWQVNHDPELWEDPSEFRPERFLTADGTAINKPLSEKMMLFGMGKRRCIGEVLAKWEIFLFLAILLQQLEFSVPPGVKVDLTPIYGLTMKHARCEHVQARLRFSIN

[20] = Subacute toxicity in KM mouse assessed as mortality at 100 mg/kg administered via gavage daily for 14 days; assay type: organism-based; conditions: in vivo, po, 336 h, time 14 day
[21] = Subacute toxicity in KM mouse assessed as abnormal behaviour at 100 mg/kg administered via gavage daily for 14 days; assay type: organism-based; conditions: in vivo, po, 336 h, time 14 day

Chain of Lanosterol 14-alpha demethylase (P10613 whole entry): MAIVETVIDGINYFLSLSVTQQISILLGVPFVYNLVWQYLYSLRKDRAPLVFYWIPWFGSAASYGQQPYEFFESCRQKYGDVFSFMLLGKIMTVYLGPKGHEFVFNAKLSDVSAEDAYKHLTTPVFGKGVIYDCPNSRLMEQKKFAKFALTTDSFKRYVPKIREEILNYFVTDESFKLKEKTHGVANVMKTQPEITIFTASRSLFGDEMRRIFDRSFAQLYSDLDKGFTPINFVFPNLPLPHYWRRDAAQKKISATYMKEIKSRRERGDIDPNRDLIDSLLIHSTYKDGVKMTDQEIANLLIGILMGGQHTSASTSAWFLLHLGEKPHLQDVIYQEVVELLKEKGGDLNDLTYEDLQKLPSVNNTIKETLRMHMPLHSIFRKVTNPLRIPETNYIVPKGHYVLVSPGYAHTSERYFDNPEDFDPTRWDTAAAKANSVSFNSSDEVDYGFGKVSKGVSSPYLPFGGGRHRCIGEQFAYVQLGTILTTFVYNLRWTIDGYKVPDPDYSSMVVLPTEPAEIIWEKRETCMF
Chain of Cytochrome P450 2C9 (P11712 whole entry): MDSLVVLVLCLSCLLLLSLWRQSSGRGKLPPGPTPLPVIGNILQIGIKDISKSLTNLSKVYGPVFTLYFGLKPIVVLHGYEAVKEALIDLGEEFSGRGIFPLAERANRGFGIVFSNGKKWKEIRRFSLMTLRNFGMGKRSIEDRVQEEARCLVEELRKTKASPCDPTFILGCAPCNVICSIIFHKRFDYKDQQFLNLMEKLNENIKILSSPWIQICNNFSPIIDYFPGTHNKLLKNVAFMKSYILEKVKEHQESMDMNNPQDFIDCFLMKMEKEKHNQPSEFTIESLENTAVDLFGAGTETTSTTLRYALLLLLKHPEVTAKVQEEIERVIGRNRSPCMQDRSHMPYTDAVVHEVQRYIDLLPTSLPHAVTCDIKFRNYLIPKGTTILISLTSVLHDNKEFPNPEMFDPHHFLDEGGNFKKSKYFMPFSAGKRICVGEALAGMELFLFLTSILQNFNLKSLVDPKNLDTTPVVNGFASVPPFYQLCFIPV

## O=c1ccc2ccc(COC(Cn3ccnc3)c3ccc(Cl)cc3Cl)cc2o1 (stereo unspecified)
[1]
  pIC50: 6.86
[2]
  Activity: Active
[3]
  MFC: 8 µg/mL (≈ 19.3 µM)
[4]
  MIC: 4 µg/mL (≈ 9.63 µM)
[5]
  Activity: Active
[6]
  Activity: Active
[7]
  MIC: 1 µg/mL (≈ 2.41 µM)
[8]
  Activity: Active
[9]
  Activity: Toxic
[10]
  Activity: Non-Toxic
[11]
  inhibition (INH): Active
[12]
  MIC: 4 µg/mL (≈ 9.63 µM)
[13]
  Activity: Dose-Dependent Effect
[14]
  Activity: Active
[15]
  MIC: 2 µg/mL (≈ 4.82 µM)
[16]
  Activity: Active
[17]
  MIC: 0.25 µg/mL (≈ 0.602 µM)
[18]
  Activity: Active
[19]
  pIC50: 5.22
[20]
  Activity: Non-Toxic
[21]
  Activity: Non-Toxic
